Converted amounts (≈) assume the structure as drawn.
Experiments:
Format in all cases: functional
[1] = system: Bacillus cereus; test: Compound was tested for its antibacterial activity against Bacillus cereus ATCC 10876
[2] = system: Geobacillus stearothermophilus; test: Compound was tested for its antibacterial activity against Bacillus stearothermophilus KG 5
[3] = system: Clostridium perfringens; test: Compound was tested for its antibacterial activity against Clostridium perfringens KT 13
[4] = system: Corynebacterium xerosis; test: Compound was tested for its antibacterial activity against Corynebacterium xerosis NCTC 9755
[5] = system: Enterococcus faecalis; test: Compound was tested for its antibacterial activity against Enterococcus faecalis ATCC 10541
[6] = system: Escherichia coli; test: Compound was tested for its antibacterial activity against Escherichia coli HA 44
[7] = system: Lactiplantibacillus plantarum; test: Compound was tested for its antibacterial activity against Lactobacillus plantarum ATCC 8014
[8] = system: Micrococcus luteus; test: Compound was tested for its antibacterial activity against Micrococcus luteus ATCC 9341
[9] = system: Pseudomonas aeruginosa; test: Compound was tested for its antibacterial activity against Pseudomonas aeruginosa ATCC 10145
[10] = system: Cutibacterium acnes; test: Compound was tested for its antibacterial activity against Propionibacterium acnes NCTC 737
[11] = system: Staphylococcus aureus; test: Compound was tested for its antibacterial activity against Staphylococcus aureus ATCC 2977
[12] = system: Staphylococcus aureus; test: Compound was tested for its antibacterial activity against Staphylococcus aureus CJ 232 (MRSA)
[13] = system: Staphylococcus epidermidis; test: Compound was tested for its antibacterial activity against Staphylococcus epidermidis ATCC 12228
[14] = system: Streptococcus pyogenes; test: Compound was tested for its antibacterial activity against Streptococcus pyogenes EC
[15] = system: Streptococcus sp.; test: Compound was tested for its antibacterial activity against Streptococcus sp. EF 6
[16] = system: Enterococcus faecium; test: Compound was tested for its antibacterial activity against Enterococcus faecium EI 119, penicillin resistant
[17] = system: Streptococcus sp.; test: Compound was tested for its antibacterial activity against Streptococcus sp. EG 14
[18] = system: Staphylococcus epidermidis; test: Antimicrobial evaluation revealed potent activity against several Gram positive bacteria (Staphylococcus epidermidis ATCC 12228)

| Compound | MIC [1] [µg/mL] | MIC [2] [µg/mL] | MIC [3] [µg/mL] | MIC [4] [µg/mL] | MIC [5] [µg/mL] | MIC [6] [µg/mL] | MIC [7] [µg/mL] | MIC [8] [µg/mL] | MIC [9] [µg/mL] | MIC [10] [µg/mL] | MIC [11] [µg/mL] | MIC [12] [µg/mL] | MIC [13] [µg/mL] | MIC [14] [µg/mL] | MIC [15] [µg/mL] | MIC [16] [µg/mL] | MIC [17] [µg/mL] | MIC [18] [µg/mL] |
| --- | --- | --- | --- | --- | --- | --- | --- | --- | --- | --- | --- | --- | --- | --- | --- | --- | --- | --- |
| CC(=O)O[C@H]1C[C@@]2(C)C(C[C@@H](O)[C@H]3[C@@]4(C)CC[C@@H](O)[C@@H](C)[C@@H]4CC[C@@]32C)/C1=C(\CCC=C(C)C)C(=O)O (some centres undefined) | 4 (≈ 7.74 µM) | 0.03 (≈ 0.0581 µM) | 16 (≈ 31 µM) | 0.04 (≈ 0.0774 µM) | 4 (≈ 7.74 µM) | > 125 | 4 (≈ 7.74 µM) | 1 (≈ 1.94 µM) | 1 (≈ 1.94 µM) | 0.02 (≈ 0.0387 µM) | 0.006 (≈ 0.0116 µM) | 0.015 (≈ 0.029 µM) | 0.001 (≈ 0.00194 µM) | 4 (≈ 7.74 µM) | 4 (≈ 7.74 µM) | 0.02 (≈ 0.0387 µM) | 16 (≈ 31 µM) |  |
| CC(=O)O[C@H]1C[C@@]2(C)C(C[C@@H](O)[C@H]3[C@@]4(C)CC[C@@H](O)[C@@H](C)C4CC[C@@]32C)[C@]12C[C@]2(CCC=C(C)C)C(=O)O (some centres undefined) | 1 (≈ 1.88 µM) | 0.03 (≈ 0.0565 µM) | 16 (≈ 30.1 µM) | 0.04 (≈ 0.0754 µM) | 16 (≈ 30.1 µM) | > 125 | 63 (≈ 119 µM) | 0.25 (≈ 0.471 µM) | 1 (≈ 1.88 µM) | 0.02 (≈ 0.0377 µM) | 0.003 (≈ 0.00565 µM) | 0.014 (≈ 0.0264 µM) |  | 16 (≈ 30.1 µM) | 16 (≈ 30.1 µM) | 0.02 (≈ 0.0377 µM) | 63 (≈ 119 µM) | 0.001 (≈ 0.00188 µM) |
